Measured values as given in ChEMBL document CHEMBL1201862, “PubChem BioAssay data set” (2004).
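Briefly, cells in 96-well plates were exposed to five compound concentrations for 48 h, and endpoints were estimated by linear interpolation. GI50 = concentration required for 50% inhibition of growth.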 The source made the active and inactive calls. No stated cut-off is given here; in the data, active = GI50 up to about 1.1 µM and inactive = higher.

Experiments:
Assay in all cases: inhibition of tumour cell growth, NCI panel, 48 h
DLD-1 = test system: DLD-1
DMS-114 = test system: DMS-114
DMS-273 = test system: DMS-273
HOP-18 = test system: HOP-18
KM-20L2 = test system: KM-20L2
M19-MEL = test system: M19-MEL
XF498 = test system: XF498
LXFL 529 = test system: LXFL 529
RXF 631 = test system: RXF 631

Structure (SMILES) | GI50 (DLD-1) | GI50 (DMS-114) | GI50 (DMS-273) | GI50 (HOP-18) | GI50 (KM-20L2) | GI50 (M19-MEL) | GI50 (XF498) | GI50 (LXFL 529) | GI50 (RXF 631)
CC12CCC(C(=O)N3CC=CCC3)(OC1=O)C2(C)C (centres undefined) | > 100 µM (inactive) | > 100 µM (inactive) | > 100 µM (inactive) | > 100 µM (inactive) | > 100 µM (inactive) | > 100 µM (inactive) | > 100 µM (inactive) | – | –
CCCCCCCSCC1OC(n2cnc3c(N)ncnc32)C(O)C1O (centres undefined) | 7.64 µM (inactive) | 18 µM (inactive) | 21.3 µM (inactive) | 17.9 µM (inactive) | > 100 µM (inactive) | – | 63.4 µM (inactive) | 12.3 µM (inactive) | –
CCCC(=O)OCC1OC(n2ccc(N)nc2=O)C(OC(=O)CCC)C1OC(=O)CCC (centres undefined) | > 100 µM (inactive) | > 100 µM (inactive) | 36.7 µM (inactive) | 1 µM (active) | 11.4 µM (inactive) | 43.2 µM (inactive) | – | – | –
CC(=O)C(CN(C)C)C(c1ccccc1)c1c(O)c2ccccc2oc1=O (centres undefined) | > 100 µM (inactive) | 93.3 µM (inactive) | > 100 µM (inactive) | > 100 µM (inactive) | > 100 µM (inactive) | > 100 µM (inactive) | > 100 µM (inactive) | > 100 µM (inactive) | –
O=c1cc2ccccc2nn1Cc1ccccc1Cl | > 100 µM (inactive) | 67.6 µM (inactive) | > 100 µM (inactive) | > 100 µM (inactive) | > 100 µM (inactive) | > 100 µM (inactive) | 80.2 µM (inactive) | – | –
O=C(CC(=O)c1ccccc1)CC(O)(c1ccccc1)c1ccccc1 | 4.18 µM (inactive) | 2.06 µM (inactive) | – | – | 5.25 µM (inactive) | 3.12 µM (inactive) | – | 3.24 µM (inactive) | –
COc1cc(Cc2cc(OC)c(OC)c(OC)c2)ccc1O | 6.11 µM (inactive) | 4.63 µM (inactive) | – | – | 36.5 µM (inactive) | 6.38 µM (inactive) | 19.9 µM (inactive) | 43.6 µM (inactive) | –
CCOc1ccc(C2=C(Cl)c3cc(OC)c(OC)cc3C2Cl)cc1 (centres undefined) | 37.6 µM (inactive) | 18.6 µM (inactive) | 37.9 µM (inactive) | 42.8 µM (inactive) | 38.8 µM (inactive) | 45.2 µM (inactive) | 19.6 µM (inactive) | 26.8 µM (inactive) | –
COc1ccc(C=O)c(NC(=O)C(C)C)c1 | – | 24.4 µM (inactive) | 28.9 µM (inactive) | 39.7 µM (inactive) | 51.5 µM (inactive) | 21 µM (inactive) | 21.9 µM (inactive) | 44.9 µM (inactive) | –
CCOC(=O)/C=C/n1c2ccccc2c(=O)c2cc(OC)ccc21 | 69.7 µM (inactive) | 65.2 µM (inactive) | 49 µM (inactive) | > 100 µM (inactive) | > 100 µM (inactive) | > 100 µM (inactive) | 48.5 µM (inactive) | > 100 µM (inactive) | 87.5 µM (inactive)
O=C1c2ccccc2CCCCCCCCCCC12OCCCO2 | 60.4 µM (inactive) | 12.2 µM (inactive) | 70.5 µM (inactive) | 47.9 µM (inactive) | 22.9 µM (inactive) | 36.6 µM (inactive) | – | 58.9 µM (inactive) | –
CN(C)CC1(Cc2ccccc2)CC/C(=C\c2ccccc2)C1=O (centres undefined) | 27.6 µM (inactive) | 31.3 µM (inactive) | 36.5 µM (inactive) | > 100 µM (inactive) | 17.2 µM (inactive) | 26.8 µM (inactive) | 80.9 µM (inactive) | 37.2 µM (inactive) | 29.3 µM (inactive)
CC(=O)OCCOCNC(=S)N/N=C(\C)c1cnc2ccccc2n1 | 26.2 µM (inactive) | 15.6 µM (inactive) | 31.9 µM (inactive) | > 100 µM (inactive) | 16.3 µM (inactive) | 15.8 µM (inactive) | > 100 µM (inactive) | 30.8 µM (inactive) | –
C/N=c1\ss/c(=N\C(=S)N(C)C)n1-c1ccccc1 | > 100 µM (inactive) | > 67.8 µM (inactive) | > 100 µM (inactive) | > 100 µM (inactive) | > 100 µM (inactive) | > 100 µM (inactive) | – | > 100 µM (inactive) | –
COC(=O)[C@H](Cc1ccccc1)NC(=O)/C(=C/C(C)C)NC(=O)[C@H](CCSC)NC=O | > 100 µM (inactive) | > 100 µM (inactive) | > 100 µM (inactive) | > 100 µM (inactive) | > 100 µM (inactive) | > 100 µM (inactive) | > 100 µM (inactive) | > 100 µM (inactive) | –
